Data taken from patent US20250241901A1, “ACTIVATION OF MNRR1 / CHCHD2 AS A THERAPEUTIC TARGET FOR MITOCHONDRIA ASSOCIATED DISORDERS” (Wayne State University, priority 2024, published 2025).

How the values were obtained:
Format in all cases: cell-based, human
[1] = tested on: MNRR1 promoter; experiment: Dual luciferase reporter assay with MNRR1 promoter deletions in MELAS cybrid cells; settings: 10 μM, 24 h
Method: FIGS. 9A-9E: Nitazoxanide acts by reducing HIF2α levels in MELAS cells. FIG. 9A: Schematic representation of deleted regions of the MNRR1 promoter. FIG. 9B: Dual luciferase reporter assay using the MNRR1 promoter deletions in cells treated with vehicle (DMSO), nitazoxanide, or tizoxanide (10 μM) for 24 h (n=4 biological replicates). FIG. 9C: DNA sequence of region of 800-952 bp in the MNRR1 promoter (SEQ ID NO: 25) highlighting binding sites of the transcription factors shown. FIG. 9D: Transcript levels of HIF2α and HIF1α in MELAS cybrid cells harboring different levels of heteroplasmy (0% to 100%). Data from. FIG. 9E: Protein levels of HIF2α and HIF1α in cybrid cells with 0% (CL9) and 70% MELAS heteroplasmy (DW7) In all figures, * indicates p<0.05, ** indicates p<0.005.
Luciferase reporter assay: Luciferase assays were performed with the dual-luciferase reporter assay kit (Promega). Briefly, cells were lysed in 1× passive lysis buffer (Promega) and 25 μL of lysate was used for assay with a tube luminometer using an integration time of 10 s. Transfection efficiency was normalized with the co-transfected pRL-SV40 Renilla luciferase expression plasmid.

[2] = tested on: MNRR1; experiment: MNRR1 protein levels in MELAS cybrid cells (immunoblot); settings: 10 μM; for MNRR1 protein levels: DW7 cells, 24 h
Method: FIGS. 6A-6C: FIG. 6A: Above, Chemical structures of nitazoxanide, its metabolites, and similar compounds. Abbreviations: P4, Phenyl-4-aminosalicylic acid; 4ABA, 4-Aminobenzanilide; 4ASA, 4-Amino salicylic acid; BA, Benzanilide; PBO, Phenyl benzoate; PSA, Phenyl salicylic acid; 2AN, 2-Amino 5-nitrothiazole. Below, Equal amounts of lysates of MELAS cells treated with Vehicle (DMSO) or the various compounds (10 μM) for 24 h were separated on an SDS-PAGE gel and probed for MNRR1 levels. Actin was probed as a loading control and numbers below represent an average and SD of 3 biological replicates. FIGS. 6B-6C: MNRR1 transcript levels are shown relative to 18S rRNA (n=4 biological replicates, error bars represent SE). In all figures, * indicates p<0.05, ** indicates p<0.005.
FIGS. 11A-11F: RBPJk and HIF2α compete for binding at the ORE in the MNRR1 promoter to regulate transcription. FIG. 11A: Chromatin immunoprecipitation-qPCR assessing binding of HIF2α to the endogenous MNRR1 promoter in MELAS cybrid cells with 0% (CL9) and 70% heteroplasmy (DW7). FIG. 11B: Dual luciferase reporter assay showing relative activation of MNRR1-luciferase levels in MELAS cybrid cells overexpressing varying proportions of constitutively active RBPJk (RBP-CA) and HIF2α. FIG. 11C: Dual luciferase reporter assay showing relative activation of MNRR1-luciferase levels in MELAS cybrid cells overexpressing the WT (FIG. 9A) or ΔORE (positions 47-53 in SEQ ID NO: 25 in FIG. 9C) promoter with EV (dotted line) or HIF2α. FIG. 11D: Equal amounts of Control or HIFα knockdown (KD) MELAS cybrid cell lysates were separated on an SDS-PAGE gel and probed for HIF2α and MNRR1 levels. Tubulin was probed as loading control. FIG. 11E: Oxygen consumption measured from Control or HIFα knockdown (KD) MELAS cybrid cells. (n=4 biological replicates, error bars represent SE). FIG. 11F: Left, Oxygen consumption measured from MELAS cybrid cells treated with vehicle (DMSO) or PT2385 (10 μM), an inhibitor of HIF2α function, for 24 h. Right, Equal amounts of MELAS cybrid cell lysates treated with vehicle (DMSO) or PT2385 (10 μM) for 24 h, separated on an SDS-PAGE gel, and probed for MNRR1 levels. GAPDH was probed as a loading control.
Immunoblotting: Immunoblotting was performed as described previously. Cell lysates for immunoblotting were prepared using RIPA buffer (Abcam, Waltham, MA) and included a protease and phosphatase inhibitor cocktail (Sigma, St. Louis, MO). […] The clear supernatants were transferred to new tubes and quantified using the Bradford reagent with BSA as standard (BioRad, Hercules. CA). […] For detection after immunoblotting, the SuperSignal™ West Pico PLUS substrate (ThermoFisher, Waltham, MA) was used to generate chemiluminescence signal, which was detected with X-Ray film (RadTech, Vassar, MI).

[3] = tested on: MELAS patient fibroblasts; experiment: Heteroplasmy in MELAS patient fibroblasts; settings: low heteroplasmy levels (<50%)
Method: Restriction Enzyme Digestion: DNA was analyzed for the MELAS mutation as described previously. The A→G mutation creates a new Haelll site at position 3243 that can be amplified by PCR using primers corresponding to the light-strand positions 3116 to 3134 and to the heavy-strand positions 3353 to 3333. Equal amounts of the resulting products were digested with the restriction enzyme Haelll (New England Biolabs) and electrophoresed on a 2.5% agarose gel.

CC(=O)Oc1ccccc1C(=O)Nc1ncc([N+](=O)[O-])s1 [nitazoxanide, Nitazoxanide]
activation of MNRR1 promoter with deletion of the 801-952 region [1]: failed to display activation | MNRR1 protein levels [2]: significant increase

O=C(Nc1ncc([N+](=O)[O-])s1)c1ccccc1O [tizoxanide, Tizoxanide]
activation of MNRR1 promoter with deletion of the 801-952 region [1]: failed to display activation | shift of heteroplasmy [3]: do not show a shift of heteroplasmy | MNRR1 protein levels [2]: significant increase | MNRR1 levels ([2]; MELAS cybrid cells, 48 h): increases MNRR1 levels
